Here are results for two molecules from US20190293584A1, “Detection of Living Cells” (priority 2018, published 2019).

Assay [1] has as its system M. bovis BCG. As to conditions: known from literature; cited from earlier work.
The test system of assay [2] is M. smegmatis. The settings on record: known from literature; cited from earlier work.
The test system of assay [3] is M. smegmatis. Format: cell-based, Mycobacterium smegmatis.
Assay [4] has as its system M. bovis BCG. Format: cell-based, Mycobacterium bovis BCG.
In the next assay the test system is M. tuberculosis. As to conditions: known from literature; cited from earlier work.
In assay [5] the test system is cocktail of S. aureus and P. aeruginosa. Briefly: m-EIS bulk capacitance vs time, incompletely decontaminated artificial sputum with non-mycobacterial cultures. Format: cell-based, Staphylococcus aureus and Pseudomonas aeruginosa. As to conditions: incomplete decontamination: NaOH-NALC approximately 1 minute, 0.25 N NaOH. From the text: All m-EIS readings were done post digestion and decontamination of the samples using the NALC-NaOH technique. In the first case, the sample has no bacteria and no changes in charge storage (bulk capacitance) should occur at any point in time. It is expected to see a flat line as there should be no change in the bulk capacitance over time. In case three, where the sample contains gram-positive and gram-negative bacteria, but no mycobacteria, all organisms should be killed during decontamination (pre-treatment) itself, and the addition of the antibiotics is not expected to cause any changes to the measured value of bulk capacitance. However, if there are mycobacteria in the sample (as in case […]), the mycobacteria should survive the decontamination process and continue to grow in the presence of Carbenicillin (case 2B). However, they will die in the presence of amikacin (case 2A). […]
The experimental protocol requires periodic (e.g., every hour) performance of an electrical “scan” of sample aliquots in a microfluidic cassette, wherein electrical impedance was measure at multiple (200) frequencies ranging from 1 kHz to 100 MHz. […] At each frequency (ω), both the in-phase and out-of-phase components of the electrical impedance, Z, (resistance (R) and reactance (X)) were measured. […]

Assay [6] has as its system most other non-mycobacterial species. The settings on record: known from literature; cited from earlier work.
In the next assay the test system is mycobacteria. The settings on record: known from literature; cited from earlier work.

SMILES strings stand for the structures. Where a name gives a salt, the structure may show the parent alone.

Regarding `NCC[C@H](O)C(=O)N[C@@H]1C[C@H](N)[C@@H](O[C@H]2O[C@H](CN)[C@@H](O)[C@H](O)[C@H]2O)[C@H](O)[C@H]1O[C@H]1O[C@H](CO)[C@@H](O)[C@H](N)[C@H]1O` [Amikacin], the bactericidal effect entry with M. bovis BCG [1], with M. smegmatis [2] and in the assay on M. tuberculosis was “bactericidal effects” in each case. In the assay with M. smegmatis [3] (M. smegmatis in artificial sputum after NaOH-NALC decontamination, initial loads (1 to 5)×10^5 CFU/ml, amikacin 32 μg/ml, carbenicillin 25 μg/ml), the “time-to-detection (TTD): earliest time at which bulk capacitance is significantly lower than baseline” value was less than 3 h. Further, the “time-to-detection (TTD)” value in the assay on M. bovis BCG [4] (M. bovis BCG in artificial sputum, exposed to amikacin) was less than 3 h.
As for `CC1(C)S[C@@H]2[C@H](NC(=O)C(C(=O)O)c3ccccc3)C(=O)N2[C@H]1C(=O)O` (some centres unmarked) [Carbenicillin, Carbenicillin disodium salt], the “change of bulk capacitance over time” value was “decreases in bulk capacitance were observed over time” in assay [5] and “no growth was seen” in the assay with M. bovis BCG [4] (Case 2, M. bovis BCG, duration of observation 3 hours). For the same molecule, in the assay on M. smegmatis [3] (Case 2: M. smegmatis, P aeruginosa and S. aureus, after decontamination), the “change of bulk capacitance (impedance values) over time” value is on record as “not found to show any decrease over time”. The “rate of increase in bulk capacitance” value in the assay with M. bovis BCG [4] (Case 2, M. bovis BCG, 3 hours observation) is reported as “negligible”. The “activity against non-mycobacterial species” value in assay [6] is reported as “bactericidal”. Moreover, the activity against mycobacteria result in the assay with mycobacteria is recorded as “ineffective”.
